Patent US20260285849A1, “METHYLOPHIOPOGONONE A DERIVATIVE, AND PREPARATION AND USE THEREOF” (INSTITUTE OF MATERIA MEDICA, CHINESE ACADEMY OF MEDICAL …, priority 2022, published 2026)
Where two headings read alike, the source gives them in different places.

Key:
Type in all cases: in vivo
[1] = system: mice with hypertensive heart disease induced by angiotensin II (AngII); design: unit not given here
Experimental: After male C57BL/6 mice were acclimated to the environment, they were randomly divided into 10 groups, namely the blank control group, the AngII model group, the AngII+telmisartan 10 mg/kg positive control group, the AngII+spironolactone 20 mg/kg positive control group, the AngII+Formula I (0.1, 0.5, 2 mg/kg) groups, and the AngII+Formula II (0.1, 0.5, 2 mg/kg) groups. The mice in the drug administration groups were intragastrically administered the corresponding doses of Formula I and Formula II compounds once a day at the same time. The mice in the positive control groups were intragastrically administered the corresponding doses of telmisartan and spironolactone once a day. The mice in the blank control group and the model group were given the same amount of solvent (0.5% CMC-Na solution). The administration volume was 10 mL/kg, and the administration was continuous for 14 days. From the 1st to the 13th day of drug administration, AngII modeling was carried out. The mice in the blank control group were subcutaneously injected with normal saline, and the mice in the other groups were subcutaneously injected with 1.44 mg/kg of AngII (modeling was carried out 2 h after drug administration), for a total of 13 times. […] Three mice were randomly selected from each group. The mice were placed in a fixator to expose the tail. The fixator was placed on a heating pad to maintain the normal body temperature of the mice. The root of the tail was passed through a pressurized tail cuff and fixed. Inflation and pressurization were started, and a measuring instrument was used to measure the systolic blood pressure (SBP). The blood pressure index of each animal was continuously measured 5 times, and the average value was taken.

[2] = system: mice with hypertensive heart disease induced by angiotensin II (AngII); experiment: AngII-induced hypertensive heart disease mouse model: serum BNP (ELISA)
Experimental: (§1) After male C57BL/6 mice were acclimated to the environment, they were randomly divided into 10 groups, namely the blank control group, the AngII model group, the AngII+telmisartan 10 mg/kg positive control group, the AngII+spironolactone 20 mg/kg positive control group, the AngII+Formula I (0.1, 0.5, 2 mg/kg) groups, and the AngII+Formula II (0.1, 0.5, 2 mg/kg) groups. The mice in the drug administration groups were intragastrically administered the corresponding doses of Formula I and Formula II compounds once a day at the same time. The mice in the positive control groups were intragastrically administered the corresponding doses of telmisartan and spironolactone once a day. The mice in the blank control group and the model group were given the same amount of solvent (0.5% CMC-Na solution). The administration volume was 10 mL/kg, and the administration was continuous for 14 days. From the 1st to the 13th day of drug administration, AngII modeling was carried out. The mice in the blank control group were subcutaneously injected with normal saline, and the mice in the other groups were subcutaneously injected with 1.44 mg/kg of AngII (modeling was carried out 2 h after drug administration), for a total of 13 times. Detection of myocardial hypertrophy/heart failure biomarkers: After the experiment, the animals were sacrificed by enucleation to obtain blood. The blood was left to stand at room temperature for 2 hours, and then centrifuged at 3500 rpm for 20 minutes to separate the serum. The content of serum BNP was determined according to the instructions of the ELISA kit.

[3] = system: mice with hypertensive heart disease induced by angiotensin II (AngII); experiment: AngII-induced hypertensive heart disease mouse model: echocardiogram; conditions: left ventricle, day 14
Experimental: After male C57BL/6 mice were acclimated to the environment, they were randomly divided into 10 groups, namely the blank control group, the AngII model group, the AngII+telmisartan 10 mg/kg positive control group, the AngII+spironolactone 20 mg/kg positive control group, the AngII+Formula I (0.1, 0.5, 2 mg/kg) groups, and the AngII+Formula II (0.1, 0.5, 2 mg/kg) groups. The mice in the drug administration groups were intragastrically administered the corresponding doses of Formula I and Formula II compounds once a day at the same time. The mice in the positive control groups were intragastrically administered the corresponding doses of telmisartan and spironolactone once a day. The mice in the blank control group and the model group were given the same amount of solvent (0.5% CMC-Na solution). The administration volume was 10 mL/kg, and the administration was continuous for 14 days.
From the 1st to the 13th day of drug administration, AngII modeling was carried out. The mice in the blank control group were subcutaneously injected with normal saline, and the mice in the other groups were subcutaneously injected with 1.44 mg/kg of AngII (modeling was carried out 2 h after drug administration), for a total of 13 times.
Echocardiogram detection: On the 14th day of drug administration (after 13 times of AngII modeling), 5 animals were randomly selected from each group. After anesthesia and fixation, the chest hair was shaved, and a small amount of coupling agent was applied to the chest. The Vevo 770 Imaging System, a small animal ultrasonic real-time imaging system, was used for echocardiogram examination. All echocardiogram indexes of the animals were continuously measured for 3 cardiac cycles, and the average value was taken.

[4] = system: mice with hypertensive heart disease induced by angiotensin II (AngII); experiment: AngII-induced hypertensive heart disease mouse model: serum TNF-α (ELISA)
Experimental: as §1, with “serum inflammatory factors:” for “myocardial hypertrophy/heart failure biomarkers:”, “TNF-α” for “BNP”

[5] = 0 d (before administration), 0.1 mg/kg group
[6] = 0 d (before administration), 0.5 mg/kg group
[7] = 0 d (before administration), 2 mg/kg group
[8] = 7 d, 0.1 mg/kg intragastric once a day, AngII 1.44 mg/kg s.c.
[9] = 7 d, 0.5 mg/kg intragastric once a day, AngII 1.44 mg/kg s.c.
[10] = 7 d, 2 mg/kg intragastric once a day, AngII 1.44 mg/kg s.c.
[11] = 14 d, 0.1 mg/kg intragastric once a day, AngII 1.44 mg/kg s.c.
[12] = 14 d, 0.5 mg/kg intragastric once a day, AngII 1.44 mg/kg s.c.
[13] = 14 d, 2 mg/kg intragastric once a day, AngII 1.44 mg/kg s.c.
[14] = 0.1 mg/kg intragastric once a day 14 days
[15] = 0.5 mg/kg intragastric once a day 14 days
[16] = 2 mg/kg intragastric once a day 14 days
[17] = 0.1 mg/kg intragastric once a day
[18] = 0.5 mg/kg intragastric once a day
[19] = 2 mg/kg intragastric once a day
[20] = 10 mg/kg intragastric once a day 14 days
[21] = 10 mg/kg intragastric once a day
[22] = 20 mg/kg intragastric once a day 14 days
[23] = 20 mg/kg intragastric once a day

Row | SMILES | SBP [1, 5] | SBP [1, 6] | SBP [1, 7] | SBP [1, 8] | SBP [1, 9] | SBP [1, 10] | SBP [1, 11] | SBP [1, 12] | SBP [1, 13] | BNP [2, 14] [pg/mL] | BNP [2, 15] [pg/mL] | BNP [2, 16] [pg/mL] | Post-diastolic posterio rwall thickness [3, 17] [mm] | Posterior wall thickness in systole [3, 17] [mm] | Post-diastolic posterio rwall thickness [3, 18] [mm] | Posterior wall thickness in systole [3, 18] [mm] | Post-diastolic posterio rwall thickness [3, 19] [mm] | Posterior wall thickness in systole [3, 19] [mm] | TNF-α [4, 14] [ng/L] | TNF-α [4, 15] [ng/L] | further results
1 | O=c1c(Cc2ccc3c(c2)OCO3)coc2cc(O)cc(O)c12 [Formula I] | 102.13 ± 4.30 | 109.70 ± 5.67 | 104.93 ± 9.21 | 121.33 ± 3.19 | 109.80 ± 4.50 | 107.73 ± 6.53 | 107.60 ± 9.81 | 105.13 ± 7.10 | 109.20 ± 5.19 | 112.93 ± 17.57 | 117.59 ± 13.78 | 102.97 ± 5.56 | 0.79 ± 0.09 | 0.90 ± 0.06 | 0.64 ± 0.02 | 0.87 ± 0.11 | 0.67 ± 0.08 | 0.90 ± 0.16 | 706.64 ± 91.15 | 699.02 ± 55.58 | TNF-α [4, 16]: 634.24 ± 98.58 ng/L
2 | CCCc1nc2c(C)cc(-c3nc4ccccc4n3C)cc2n1Cc1ccc(-c2ccccc2C(=O)O)cc1 [Telmisartan, reference compound] |  |  |  |  |  |  |  |  |  |  |  |  |  |  |  |  |  |  |  |  | SBP ([1]; 0 d (before administration), 10 mg/kg group): 104.13 ± 3.56; SBP ([1]; 7 d, 10 mg/kg intragastric once a day, AngII 1.44 mg/kg s.c.): 91.20 ± 6.35^###&; SBP ([1]; 14 d, 10 mg/kg intragastric once a day, AngII 1.44 mg/kg s.c.): 100.47 ± 7.68; BNP [2, 20]: 96.84 ± 7.34 pg/mL; Post-diastolic posterio rwall thickness [3, 21]: 0.65 ± 0.07 mm; Posterior wall thickness in systole [3, 21]: 0.79 ± 0.16 mm; TNF-α [4, 20]: 616.87 ± 70.42 ng/L
3 | CC(=O)S[C@@H]1CC2=CC(=O)CC[C@]2(C)[C@H]2CC[C@@]3(C)[C@@H](CC[C@@]34CCC(=O)O4)[C@H]12 [Spironolactone, reference compound] |  |  |  |  |  |  |  |  |  |  |  |  |  |  |  |  |  |  |  |  | SBP ([1]; 0 d (before administration), 20 mg/kg group): 106.13 ± 0.81; SBP ([1]; 7 d, 20 mg/kg intragastric once a day, AngII 1.44 mg/kg s.c.): 109.73 ± 6.81; SBP ([1]; 14 d, 20 mg/kg intragastric once a day, AngII 1.44 mg/kg s.c.): 109.70 ± 4.20; BNP [2, 22]: 129.92 ± 15.60 pg/mL; Post-diastolic posterio rwall thickness [3, 23]: 0.81 ± 0.07 mm; Posterior wall thickness in systole [3, 23]: 1.01 ± 0.08 mm; TNF-α [4, 22]: 758.49 ± 72.35 ng/L
4 | Cc1c(O)cc(O)c2c(=O)c(Cc3ccc4c(c3)OCO4)coc12 [Formula II, 3-(benzo[d][1,3]dioxol-5-ylmethyl)-5,7-dihydroxy-8-methyl-4H-chromen-4-one] | 100.30 ± 7.37 | 102.43 ± 8.41 | 101.27 ± 12.13 | 105.73 ± 6.00 | 106.07 ± 1.22 | 110.93 ± 5.78 | 110.13 ± 3.51 | 113.93 ± 3.51 | 108.27 ± 7.29 | 103.21 ± 16.09 | 101.08 ± 9.09 | 91.67 ± 15.39 | 0.72 ± 0.08 | 0.91 ± 0.10 | 0.69 ± 0.06 | 0.87 ± 0.04 | 0.72 ± 0.06 | 0.82 ± 0.11 | 645.36 ± 87.50 | 671.09 ± 80.55 | TNF-α [4, 16]: 627.56 ± 98.89 ng/L
